Patent US11529397B2, “Method of treating mucopolysaccharidosis type IVA” (Saint Louis University, priority 2018, dated 2022)

What was measured:
splenocytes [1] = assay: Screening of peptides by splenocytes proliferation, retest in MKC mice (Examples 5-6); type: cell-based, mouse; conditions: MKC mice, 16, 22 and 24 infusions; with higher number of infusions
Experimental: of body weight through the tail vein. A control group received PBS. […] The suspension was centrifuged at 1,000 rpm during 10 minutes. […] The specificity of cellular response against the peptides or the complete enzyme in the in vitro stimulation was determined by splenocyte proliferation or cytokine secretion in ERT treated mice or PBS injected control mice. […] 3H-Thymidine incorporation was measured by β-Scintillation counter (Trilux Microbeta Counter). Proliferation data are expressed as counts per minute (cpm) values (FIG. 5). (Mirano-Bascos et al. (2010) J Virol. 84(7): p. 3303-11).

splenocytes [2] = assay: Secreted cytokine profile of splenocytes, retest in MKC mice (Example 7); type: cell-based, mouse; conditions: for IL-5 secretion, ERT treated vs PBS controls, p or significance / IL-13 secretion, ERT treated vs PBS controls, p or significance / profile of secreted cytokines, ERT treated vs PBS treated mice: MKC mice; for levels of IL-4 secretion among the stimuli / levels of IL-5 secretion among the stimuli: MKC mice treated by ERT; for profile of secreted cytokines, ERT treated vs PBS treated mice: 16 i.v. infusions
Experimental: The predicted peptides from Example 1 were reevaluated in MKC mice to reaffirm the selection of peptides 4, 8, and 10. […] A control group received PBS. […] The suspension was centrifuged at 1,000 rpm during 10 minutes. […] The specificity of cellular response against the peptides or the complete enzyme in the in vitro stimulation was determined by splenocyte proliferation or cytokine secretion in ERT treated mice or PBS injected control mice.
(§1) Cytokines were determined in the cell culture supernatants. […] Cells were centrifuged at 1,000 rpm during 10 min. Secreted cytokines (IL-4, IL-5, IL-13, and IFN-γ) in the collected supernatants were detected by a bead immunoassay kit which allow the measurement of multiple proteins simultaneously (LUMINEX xMAP Technology, using a Millipore Milliplex™ kit) according to manufacturer's instructions (FIG. 5).

splenocytes [3] = assay: Splenocytes proliferation in Morquio A mouse models and WT mice treated by ERT (Example 9); type: cell-based
Experimental: (§2) Morquio A mouse models: a). […] 14(22): p. 3321-35).c). Missense mutation mice (Galnstm (C76S) SLU C2) (Tomatsu et al. (2007) Mol Genet Metab., 91(3): p. 251-8), and wild-type C57BL6 mice were treated by ERT. […] A control group received PBS.
(§3) The suspension was centrifuged at 1,000 rpm during 10 minutes.
Thymidine incorporation was measured by β-Scintillation counter (Trilux Microbeta Counter) Mirano-Bascos, et al. (2010) J Virol. 84(7): p. 3303-11).

splenocytes [4] = assay: Secreted cytokines of splenocytes in Morquio A mouse models and WT mice treated by ERT (Examples 10-13); type: cell-based; conditions: for IL-4 secretion / IL-5 secretion / IL-13 secretion: MTol mice
Experimental: as §2, §3
as §1, with “1000” for “1,000”, “instructions.” for “instructions (FIG. 5).”

MKC mice [5] = assay: Oral tolerance induction: secreted cytokines after GALNS in vitro stimulation (Examples 15-18); type: in vivo, mouse; conditions: for IFN-γ secretion after oral treatment: oral 50, 100 or 500 μg, GALNS in vitro stimulation
Text: (§4) Control groups (7 and 8) received PBS alone.
Secreted cytokines (IL-4, IL-5, IL-10, IL-13 and IFN-γ) in the collected supernatants were detected by a bead immunoassay kit which allow the measurement of multiple proteins simultaneously (LUMINEX xMAP Technology, using a Millipore Milliplex™) kit according manufacturer's instructions (FIG. 6).

MKC mice [6] = assay: Oral tolerance induction: GALNS specific IgG plasma levels by ELISA (Example 19); type: in vivo, mouse
Experimental: as §4
An indirect ELISA technique was used to detect plasma IgG and IgE antibodies against GALNS in treated and untreated mice. […] The plates were blocked with 3% Casein in PBS for 1 h at room temperature in a wet chamber. After two washes, first with TTBS (10 mMTris, 150 mM NaCl, 0.05% Tween20, pH 7.5), and then with TBS (10 mM Tris, 150 mM NaCl, 0.05%, pH 7.5), […] of mice plasma samples diluted 1:500, for IgE and 1:1,000 for IgG, in TTBS were added to the plate and incubated 2 h at 37° C. in a wet chamber. Four washes with TTBS were performed. 100 μl of anti-mouse IgE-HRP (Thermo Scientific) 1:1,000 in TTBS or IgG-Peroxidase (Sigma) 1:5,000 dilution in TTBS were applied. After three washes with TTBS, followed by one wash with TBS, the experiment was developed with the substrate TMB (3,3′,5,5′Tetramethylbenzidine). The enzymatic reaction was stopped with IN HCl solution and the absorbance was measured at 450 nm in a Multiskan® EL800 (Bio-Tek Instruments). Plasma concentrations of IgG antibodies anti-GALNS were derived by extrapolation of the absorbance values from a calibration curve using a mAb anti-GALNS.

MKC mice [7] = assay: Regulatory markers (CTLA-4, TGF-β) mRNA in Peyer patches after induction of tolerance (Example 21); type: in vivo, mouse; conditions: real-time PCR, oral 50, 100 or 500 μg
Text: FIG. 25. Up-regulation of TGF-β expression after induction of tolerance in mice PP. […] Control groups were fed with PBS. […] The fold change in expression was related to the values of non-tolerized group. GAPDH was using as a housekeeping gene for the data normalization.
FIG. 26. Up-regulation of CTLA-4 expression after induction of tolerance in mice PP. […] Control groups were fed with PBS. […] The fold change in expression was related to the values of non-tolerized group. GAPDH was using as a housekeeping gene for the data normalization.
Regulatory Markers Evaluation in Peyer Patches (PP) after Induction of Tolerance. […] Most of the mice presented up-regulation of these regulatory molecules when compare with the non-tolerized group.

MKC mice [8] = assay: Oral tolerance protocol followed by ERT, overall outcome; type: in vivo, mouse; conditions: oral administration prior to ERT
Text: as §4

[9] = oral 50 μg, one week after the last infusion

| Molecule | relationship between number of weekly i.v. infusions and cpm values of splenocytes proliferation (splenocytes [1]) | IL-5 secretion, ERT treated vs PBS controls, p or significance (splenocytes [2]) | IL-13 secretion, ERT treated vs PBS controls, p or significance (splenocytes [2]) | levels of IL-4 secretion among the stimuli (splenocytes [2]) | levels of IL-5 secretion among the stimuli (splenocytes [2]) | profile of secreted cytokines, ERT treated vs PBS treated mice (splenocytes [2]) | splenocytes proliferation, ERT treated vs PBS controls (splenocytes [3]; C2 mice) | splenocytes proliferation, ERT treated vs PBS controls (splenocytes [3]; MKC mice) | splenocytes proliferation, ERT treated vs PBS controls (splenocytes [3]; WT mice) | IFN-γ secretion, MKC vs MTol mice treated by ERT, p or significance (splenocytes [4]) | IL-4 secretion (splenocytes [4]) | IL-5 secretion (splenocytes [4]) | IL-13 secretion (splenocytes [4]) | IFN-γ secretion after oral treatment (MKC mice [5]) | reduction in GALNS specific IgG plasma levels vs non-tolerized mice, p or words (MKC mice [6]; [9]) | reduction in GALNS specific IgG plasma levels vs non-tolerized mice, p or words (MKC mice [6]; oral 100 μg) | TGF-β expression in Peyer patches vs non-tolerized group (MKC mice [7]) | inducing oral tolerance to GALNS (MKC mice [8]) | other results |
| --- | --- | --- | --- | --- | --- | --- | --- | --- | --- | --- | --- | --- | --- | --- | --- | --- | --- | --- | --- |
| QQHQEALVPAQPQLNVTNWA (listed as Homo sapiens) [Peptide I10] | lower levels of proliferation | 0.0094 | 0.0002 | Higher levels | Higher levels | statistically significant difference | statistically significant difference | statistically significant | statistically significant difference | 0.044 | did not present secretion of IL-4 | did not present secretion of IL-5 | did not show any secretion of IL-13 | down-regulated | 0.0086 | same levels or in some cases higher levels | observed in both groups | effective | specific cellular response after splenocytes in vitro stimulation (splenocytes [4]; mice treated by ERT, compared with GALNS stimulation): very similar to the one observed by in vitro stimulation with GALNS; reduction in GALNS specific IgG plasma levels vs non-tolerized mice, p or words (MKC mice [6]; oral 500 μg): same levels or in some cases higher levels; CTLA-4 expression in Peyer patches vs non-tolerized group (MKC mice [7]): predominantly up-regulated |
| N-acetylgalactosamine-6-sulfatase (protein, listed as Homo sapiens, recombinant human GALNS produced in CHO cells, used for ERT and oral tolerance) APQPPNILLLLMDDMGWGDLGVYGEPSRETPNLDRMAAEGLLFPNFYSANPLCSPSRAALLTGRLPIRNGFYTTNAHARNAYTPQEIVGGIPDSEQLLPELLKKAGYVSKIVGKWHLGHRPQFHPLKHGFDEWFGSPNCHFGPYDNKARPNIPVYRDWEMVGRYYEEFPINLKTGEANLTQIYLQEALDFIKRQARHHPFFLYWAVDATHAPVYASKPFLGTSQRGRYGDAVREIDDSIGKILELLQDLHVADNTFVFFTSDNGAALISAPEQGGSNGPFLCGKQTTFEGGMREPALAWWPGHVTAGQVSHQLGSIMDLFTTSLALAGLTPPSDRAIDGLNLLPTLLQGRLMDRPIFYYRGDTLMAATLGQHKAHFWTWTNSWENFRQGIDFCPGQNVSGVTTHNLEDHTKLPLIFHLGRDPGERFPLSFASAEYQEALSRITSVVQQHQEALVPAQPQLNVCNWAVMNWAPPGCEKLGKCLTPPESIPKKCLWSH | lower levels of proliferation | 0.0029 | 0.0152 | Higher levels | Higher levels | statistically significant difference | statistically significant difference | statistically significant | statistically significant difference | not statistically significant | did not present secretion of IL-4 | did not present secretion of IL-5 | did not show any secretion of IL-13 | did not show any modulation | same levels or in some cases higher levels | 0.033 | observed in both groups | effective | IL-10 secretion after oral treatment (MKC mice [5]; mice treated orally): down-regulation of IL-10 |
